Data from patent US20020061836A1, “Methods for altering SXR activation using peptide mimetic HIV protease inhibitor SXR ligands” (priority 2000, published 2002).

Tests used:
[1] = target: T1, human VDR (Homo sapiens, UniProt P11473); assay: Nuclear receptor specificity transfection assay; type: cell-based; conditions: 10 μM paclitaxel
T1 construct: expressed in transfected cells; host or cells: CV-1

[2] = target: T2, mouse PPARδ (Mus musculus, UniProt P35396); assay: Nuclear receptor specificity transfection assay; type: cell-based; conditions: 10 μM paclitaxel
T2 construct: expressed in transfected cells; host or cells: CV-1
T2 sequence (P35396 1-440): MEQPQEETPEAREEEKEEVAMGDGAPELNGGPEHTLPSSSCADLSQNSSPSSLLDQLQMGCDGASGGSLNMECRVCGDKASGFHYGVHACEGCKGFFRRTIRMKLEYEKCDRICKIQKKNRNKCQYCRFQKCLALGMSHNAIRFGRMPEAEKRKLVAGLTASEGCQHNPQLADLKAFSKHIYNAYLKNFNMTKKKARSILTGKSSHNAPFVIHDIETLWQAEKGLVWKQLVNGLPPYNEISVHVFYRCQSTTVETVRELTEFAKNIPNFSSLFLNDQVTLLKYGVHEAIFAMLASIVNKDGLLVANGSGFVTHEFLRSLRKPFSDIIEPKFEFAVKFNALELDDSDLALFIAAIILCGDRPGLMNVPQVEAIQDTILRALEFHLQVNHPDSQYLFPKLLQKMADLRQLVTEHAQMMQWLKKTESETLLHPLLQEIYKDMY

[3] = target: T3, mouse CARβ (Mus musculus, UniProt O35627); assay: Nuclear receptor specificity transfection assay / LXRE×3-TK-luc reporter with CARβ in CV-1 cells; type: cell-based; conditions: 10 μM paclitaxel
T3 sequence (O35627 1-358): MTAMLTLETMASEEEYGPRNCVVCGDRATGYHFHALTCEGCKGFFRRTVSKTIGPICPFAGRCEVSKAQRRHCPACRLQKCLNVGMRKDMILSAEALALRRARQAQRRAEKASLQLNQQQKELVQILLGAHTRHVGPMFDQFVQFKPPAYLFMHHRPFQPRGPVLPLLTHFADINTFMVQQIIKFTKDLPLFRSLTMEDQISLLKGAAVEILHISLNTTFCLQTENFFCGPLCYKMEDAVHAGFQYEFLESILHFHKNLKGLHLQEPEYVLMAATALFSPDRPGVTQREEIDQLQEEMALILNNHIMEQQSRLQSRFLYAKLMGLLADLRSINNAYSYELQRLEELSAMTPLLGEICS

[4] = tested on: LS180 human colon cancer cells; assay: [14C]-paclitaxel efflux from pretreated LS180 cells; type: cell-based; conditions: LS180 cells induced 48 hours with 10 μM paclitaxel, 10 μM docetaxel or 100 nM LG268
Experimental: Taxane-induced drug efflux was measured using pretreated LS180 human colon cancer cells. The rate of drug efflux was measured. […] Individual data points are the means of triplicate determinations, error bars represent standard deviation and the lines are lines of regression. The slope of each line (rate of efflux) was compared to the slope obtained in the control (untreated) cells using an analysis of covariance. […] The entire experiment was performed three times with similar results. […] The cells were then incubated in media supplemented with 10 μM [^14C]-paclitaxel (4.9 μCi/umol, Moravek Biochemicals, Brea, Calif.) for 15 minutes. The uptake of ^14C-paclitaxel reached maximum levels at 10-12 minutes (data not shown). After 15 minutes, the cells were then rapidly centrifuged through silicone oil to remove all traces of extracellular radioactivity, resuspended in fresh media, and cell counts determined. At multiple time points over the next 10 minutes, triplicate aliquots of the cell suspension (approx. 1×10^5 cells/aliquot) were again centrifuged through silicon oil and the radioactivity in the cell pellet measured by quench-corrected liquid scintillation counting. The rate of [^14C]-paclitaxel efflux was determined as the slope of the [^14C]-paclitaxel versus time plots using all data. The slope for each inducer was compared to the slope obtained in the control (untreated) cells using an analysis of covariance.

[5] = target: P-glycoprotein (Mus musculus, UniProt P21447); conditions: orally administered; cited from earlier work
Chain of P-glycoprotein (P21447 whole entry): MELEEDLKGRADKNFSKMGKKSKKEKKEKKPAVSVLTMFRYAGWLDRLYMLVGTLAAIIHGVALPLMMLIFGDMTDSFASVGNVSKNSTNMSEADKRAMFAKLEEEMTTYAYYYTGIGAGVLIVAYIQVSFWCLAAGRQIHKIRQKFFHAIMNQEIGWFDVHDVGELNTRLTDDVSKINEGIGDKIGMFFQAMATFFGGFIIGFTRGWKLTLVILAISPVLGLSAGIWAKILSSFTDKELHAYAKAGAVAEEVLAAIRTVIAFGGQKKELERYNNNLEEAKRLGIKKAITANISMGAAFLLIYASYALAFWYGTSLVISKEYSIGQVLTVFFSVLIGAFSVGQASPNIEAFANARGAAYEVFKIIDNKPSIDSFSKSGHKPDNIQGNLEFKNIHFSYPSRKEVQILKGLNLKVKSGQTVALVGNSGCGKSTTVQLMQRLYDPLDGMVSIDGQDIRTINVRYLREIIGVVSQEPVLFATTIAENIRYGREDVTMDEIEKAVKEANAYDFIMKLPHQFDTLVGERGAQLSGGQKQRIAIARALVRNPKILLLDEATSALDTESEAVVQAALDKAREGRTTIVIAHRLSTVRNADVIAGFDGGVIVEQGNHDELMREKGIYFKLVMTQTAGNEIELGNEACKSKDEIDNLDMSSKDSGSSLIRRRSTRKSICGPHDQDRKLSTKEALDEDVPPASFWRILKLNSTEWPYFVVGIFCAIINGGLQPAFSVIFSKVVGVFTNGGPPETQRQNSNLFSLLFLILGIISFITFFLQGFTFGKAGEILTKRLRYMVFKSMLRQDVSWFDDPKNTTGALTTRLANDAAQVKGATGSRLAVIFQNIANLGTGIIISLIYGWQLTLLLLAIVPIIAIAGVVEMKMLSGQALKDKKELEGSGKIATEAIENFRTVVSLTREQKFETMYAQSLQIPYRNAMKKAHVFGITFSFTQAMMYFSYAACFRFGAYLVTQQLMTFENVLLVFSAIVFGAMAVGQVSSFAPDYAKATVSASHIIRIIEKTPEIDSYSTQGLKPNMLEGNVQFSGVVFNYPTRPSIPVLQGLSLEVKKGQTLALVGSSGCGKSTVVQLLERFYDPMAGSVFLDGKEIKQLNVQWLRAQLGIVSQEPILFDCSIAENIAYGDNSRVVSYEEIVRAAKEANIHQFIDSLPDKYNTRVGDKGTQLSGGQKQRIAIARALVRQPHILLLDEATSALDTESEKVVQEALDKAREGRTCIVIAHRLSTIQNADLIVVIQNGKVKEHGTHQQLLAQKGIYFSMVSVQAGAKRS

T1 sequence (P11473 whole entry): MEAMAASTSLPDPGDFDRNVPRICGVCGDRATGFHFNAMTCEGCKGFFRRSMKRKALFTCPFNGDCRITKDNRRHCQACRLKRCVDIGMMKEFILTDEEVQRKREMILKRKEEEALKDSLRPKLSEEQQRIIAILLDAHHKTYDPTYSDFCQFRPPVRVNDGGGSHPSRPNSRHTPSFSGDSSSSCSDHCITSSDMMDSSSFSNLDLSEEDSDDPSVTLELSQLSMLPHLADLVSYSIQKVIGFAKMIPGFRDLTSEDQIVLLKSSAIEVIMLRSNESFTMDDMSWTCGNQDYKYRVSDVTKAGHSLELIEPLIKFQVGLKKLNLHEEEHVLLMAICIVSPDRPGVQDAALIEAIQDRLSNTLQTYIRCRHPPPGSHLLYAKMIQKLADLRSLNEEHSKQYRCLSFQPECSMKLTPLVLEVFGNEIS

For `CC(=O)O[C@H]1C(=O)[C@@]2(C)[C@H]([C@H](OC(=O)c3ccccc3)[C@]3(O)C[C@H](OC(=O)[C@H](O)[C@@H](NC(=O)c4ccccc4)c4ccccc4)C(C)=C1C3(C)C)[C@]1(OC(C)=O)CO[C@@H]1C[C@@H]2O` [paclitaxel], the “effect on VDR reporter activity” value [1] was “no effect”, the “effect on PPARδ reporter activity” value [2] was “no effect” and the “effect on CARβ reporter activity” value [3] was “no effect”. The “rate of [14C]-paclitaxel efflux versus untreated cells” value [4] was “significantly faster” and the “fecal excretion for which P-glycoprotein is responsible” value [5] was 85%.
